Assay results as given in ChEMBL document CHEMBL5523677, “Discovery of ASP6918, a KRAS G12C inhibitor: Synthesis and structure-activity relationships of 1-{2,7-diazaspiro[3.5]non-2-yl}prop-2-en-1-one derivatives as covalent inhibitors with good potency and oral activity for the treatment of solid tumors” (Bioorg Med Chem, 2024).
Values belong to the compound of their own block, whether it stands above or below them.

Key:
[1] = Inhibition of biotinylated GDP-bound Avi-tagged KRAS G12C mutant (1 to 185 residues)/SOS/GST-tagged c-Raf (unknown origin) complex formation incubated for 1 hr in presence of GTP by fluorescence based analysis; set-up: species or system Homo sapiens
[2] = Inhibition of ERK phosphorylation in KRAS-G12C mutant positive human NCI-H1373 cells incubated for 2 hrs by ELISA; type: cell-based
[3] = Lipophilicity, LogD of compound in 1-Octanol/PBS at pH 7.4 by LC-MS analysis; type: physicochemical
[4] = Drug concentration in tumor of male nude mouse xenografted with KRAS G12C mutant positive human NCI-H1373 cells at 40 mg/kg, po administered as single dose and measured after 6 hrs; type: ADME, organism-based, Neoplasm; details: read-out: Ct
[5] = In vivo inhibition of ERK phosphorylation in male nude mouse xenografted with KRAS G12C mutant positive human NCI-H1373 cells assessed as reduction in pERK level in tumor at 3 mg/kg, sc administered as single dose and measured after 6 hrs relative to control; type: functional
[6] = Drug concentration in plasma of male nude mouse xenografted with KRAS G12C mutant positive human NCI-H1373 cells at 3 mg/kg, sc administered as single dose and measured after 6 hrs; type: ADME, organism-based
[7] = Inhibition of ERK phosphorylation in human A-375 cells harboring wild type KRAS and mutant BRAF incubated for 2 hrs by ELISA; type: cell-based; details: A-375, 2 h
[8] = Toxicity in male nude mouse xenografted with KRAS G12C-positive human NCI-H1373 cells assessed as reduction in body weight at 10 to 60 mg/kg, po administered once daily for 13 days; type: organism-based; details: in vivo, 312 h, dose 10-60 mg/kg, time 13 day
NCI-H1373 [9] = assay: Antitumor activity against KRAS G12C-positive human NCI-H1373 cells xenografted in male nude mouse assessed as inhibition of tumor growth at 20 mg/kg, po administered once daily for 13 days and measured on day 14 relative to control; type: functional; details: NCI-H1373, 336 h, time 14 day, read-out: TGI
[10] = Drug concentration in tumor of male nude mouse xenografted with KRAS G12C mutant positive human NCI-H1373 cells at 60 mg/kg, po administered as single dose and measured after 6 hrs; type: ADME, organism-based, Neoplasm; details: read-out: Ct
[11] = Drug concentration in tumor of male nude mouse xenografted with KRAS G12C mutant positive human NCI-H1373 cells at 3 mg/kg, sc administered as single dose and measured after 6 hrs; type: ADME, organism-based, Neoplasm; details: read-out: Ct
NCI-H1373 [12] = assay: Antitumor activity against KRAS G12C mutant positive human NCI-H1373 cells xenografted in male nude mouse assessed as inhibition of tumor growth at 10 mg/kg, sc administered once daily for 13 days and measured on day 14 relative to control; type: functional; details: NCI-H1373, 336 h, time 14 day, read-out: TGI
[13] = In vivo inhibition of ERK phosphorylation in male nude mouse xenografted with KRAS G12C mutant positive human NCI-H1373 cells assessed as reduction in pERK level in tumor at 20 mg/kg, po administered as single dose and measured after 6 hrs relative to control; type: functional
[14] = In vivo inhibition of ERK phosphorylation in male nude mouse xenografted with KRAS G12C mutant positive human NCI-H1373 cells assessed as reduction in pERK level in tumor at 60 mg/kg, po administered as single dose and measured after 6 hrs relative to control; type: functional
[15] = Aqueous solubility of compound in Japanese Pharmacopoeia 2nd fluid at pH 6.8 at 130 umol/L incubated for 20 hrs by liquid chromatography; type: physicochemical; details: dose 130 µmol/L
NCI-H1373 [16] = assay: Antitumor activity against KRAS G12C-positive human NCI-H1373 cells xenografted in male nude mouse assessed as inhibition of tumor growth at 10 mg/kg, po administered once daily for 13 days and measured on day 14 relative to control; type: functional; details: NCI-H1373, 336 h, time 14 day, read-out: TGI
[17] = Drug concentration in plasma of male nude mouse xenografted with KRAS G12C mutant positive human NCI-H1373 cells at 60 mg/kg, po administered as single dose and measured after 6 hrs; type: ADME, organism-based
NCI-H1373 [18] = assay: Antitumor activity against KRAS G12C mutant positive human NCI-H1373 cells xenografted in male nude mouse assessed as tumor regression at 10 mg/kg, sc administered once daily for 13 days and measured on day 14 relative to control; type: functional; details: time 14 day
NCI-H1373 [19] = assay: Antitumor activity against KRAS G12C-positive human NCI-H1373 cells xenografted in male nude mouse assessed as inhibition of tumor growth at 60 mg/kg, po administered once daily for 13 days and measured on day 14 relative to control; type: functional; details: NCI-H1373, 336 h, time 14 day, read-out: TGI
[20] = Drug concentration in tumor of male nude mouse xenografted with KRAS G12C mutant positive human NCI-H1373 cells at 20 mg/kg, po administered as single dose and measured after 6 hrs; type: ADME, organism-based, Neoplasm; details: read-out: Ct
[21] = Metabolic stability in human liver microsomes assessed as intrinsic clearance at 0.1 to 0.2 micromol/L incubated for 30 mins in presence of NADPH-generating system by LC-MS/MS analysis; type: ADME, Microsome; details: dose 0.1-0.2 µmol/L, read-out: CLH
[22] = In vivo inhibition of ERK phosphorylation in male nude mouse xenografted with KRAS G12C mutant positive human NCI-H1373 cells assessed as reduction in pERK level in tumor at 40 mg/kg, po administered as single dose and measured after 6 hrs relative to control; type: functional
[23] = Drug concentration in plasma of male nude mouse xenografted with KRAS G12C mutant positive human NCI-H1373 cells at 20 mg/kg, po administered as single dose and measured after 6 hrs; type: ADME, organism-based
[24] = Metabolic stability in mouse liver microsomes assessed as intrinsic clearance at 0.1 to 0.2 micromol/L incubated for 30 mins in presence of NADPH-generating system by LC-MS/MS analysis; type: ADME, Microsome; details: dose 0.1-0.2 µmol/L, read-out: CLH
[25] = Drug concentration in plasma of male nude mouse xenografted with KRAS G12C mutant positive human NCI-H1373 cells at 40 mg/kg, po administered as single dose and measured after 6 hrs; type: ADME, organism-based
NCI-H1373 [26] = assay: Antitumor activity against KRAS G12C-positive human NCI-H1373 cells xenografted in male nude mouse assessed as tumor regression at 40 mg/kg, po administered once daily for 13 days and measured on day 14 relative to control; type: functional; details: time 14 day
NCI-H1373 [27] = assay: Antitumor activity against KRAS G12C-positive human NCI-H1373 cells xenografted in male nude mouse assessed as tumor regression at 60 mg/kg, po administered once daily for 13 days and measured on day 14 relative to control; type: functional; details: time 14 day
NCI-H1373 [28] = assay: Cytotoxicity against KRAS G12C mutant positive human NCI-H1373 cells assessed as inhibition of cell growth incubated for 6 days by Celltiter-Glo 2.0 assay; type: functional, cell-based
NCI-H1373 [29] = assay: Antitumor activity against KRAS G12C-positive human NCI-H1373 cells xenografted in male nude mouse assessed as inhibition of tumor growth at 40 mg/kg, po administered once daily for 13 days and measured on day 14 relative to control; type: functional; details: NCI-H1373, 336 h, time 14 day, read-out: TGI
NCI-H1373 [30] = assay: Antitumor activity against KRAS G12C mutant positive human NCI-H1373 cells xenografted in male nude mouse assessed as inhibition of tumor growth at 3 mg/kg, sc administered once daily for 13 days and measured on day 14 relative to control; type: functional; details: NCI-H1373, 336 h, time 14 day, read-out: TGI

Compound: C=CC(=O)N1CC2(CCN(c3nc(OC4CCN(CC)CC4)nc4c(F)c(-c5c(C)ccc6[nH]ncc56)c(-c5ccccc5)cc34)CC2)C1
IC50 [1]: > 1000 nM

Compound: C=CC(=O)N1CC2(CCN(c3nc(OC4CCN(CC)CC4)nc4c(F)c(-c5c(C)ccc6[nH]ncc56)c(C(=C)C)cc34)CC2)C1
IC50 [1]: 100 nM
IC50 ([2]; Homo sapiens, NCI-H1373, 2 h): 140 nM

Compound: C=CC(=O)N1CC2(CCN(c3nc(OC4CCN(C)CC4)nc4c(Cl)c(-c5c(C)ccc6[nH]ncc56)c(F)cc34)CC2)C1
logD [3]: 3.3
IC50 [7]: > 10000 nM
solubility at 20 h, 130 µM [15]: > 100 µM
CLint scaled [24]: 115 mL/min/kg
IC50 ([2]; Homo sapiens, NCI-H1373, 2 h): 96 nM
IC50 (NCI-H1373 [28]; Homo sapiens, NCI-H1373, 144 h): 100 nM

Continued by falling IC50 ([2]; Homo sapiens, NCI-H1373, 2 h), values first:

IC50 [1]: 46 nM
IC50 ([2]; Homo sapiens, NCI-H1373, 2 h): 75 nM
Compound: C=CC(=O)N1CC2(CCN(c3nc(OC4CCN(CC)CC4)nc4c(OC)c(-c5c(C)ccc6[nH]ncc56)c(Cl)cc34)CC2)C1

IC50 [1]: 50 nM
IC50 ([2]; Homo sapiens, NCI-H1373, 2 h): 49 nM
Compound: C=CC(=O)N1CC2(CCN(c3nc(OC4CCN(CC)CC4)nc4c(OCC)c(-c5c(C)ccc6[nH]ncc56)c(Cl)cc34)CC2)C1

IC50 [1]: 57 nM
IC50 ([2]; Homo sapiens, NCI-H1373, 2 h): 35 nM
Compound: C=CC(=O)N1CC2(CCN(c3nc(OC4CCN(CC)CC4)nc4c(OC5CCC5)c(-c5c(C)ccc6[nH]ncc56)c(Cl)cc34)CC2)C1

IC50 [1]: 51 nM
IC50 ([2]; Homo sapiens, NCI-H1373, 2 h): 31 nM
Compound: C=CC(=O)N1CC2(CCN(c3nc(OC4CCN(CC)CC4)nc4c(F)c(-c5c(C)ccc6[nH]ncc56)c(C5CC5)cc34)CC2)C1

logD [3]: 3.7
concentration at 6 h [4]: 50 nM
concentration at 6 h [6]: 280 nM
IC50 [7]: > 10000 nM
concentration at 6 h [10]: 81 nM
concentration at 6 h [11]: 170 nM
solubility at 20 h, 130 µM [15]: > 100 µM
concentration at 6 h [17]: 110 nM
concentration at 6 h [20]: 7 nM
CLint scaled [21]: 130 mL/min/kg
concentration at 6 h [23]: 21 nM
CLint scaled [24]: 119 mL/min/kg
concentration at 6 h [25]: 120 nM
IC50 ([2]; Homo sapiens, NCI-H1373, 2 h): 5 nM
IC50 ([2]; nci-h1373): 4 nM
Compound: C=CC(=O)N1CC2(CCN(c3nc(OC4CCN(C)CC4)nc4c(OCC)c(-c5c(C)ccc6[nH]ncc56)c(C=C)cc34)CC2)C1
inhibition in vivo at 3 mg/kg [5]: 72%
Activity [8]: Non-Toxic
inhibition in vivo at 20 mg/kg (NCI-H1373 [9]): 68%
inhibition in vivo at 10 mg/kg (NCI-H1373 [12]): > 100%
inhibition in vivo at 20 mg/kg [13]: 38%
inhibition in vivo at 60 mg/kg [14]: 80%
inhibition in vivo at 10 mg/kg (NCI-H1373 [16]): 27%
Activity (NCI-H1373 [18]): 73%
inhibition in vivo at 60 mg/kg (NCI-H1373 [19]): > 100%
inhibition in vivo at 40 mg/kg [22]: 72%
Activity (NCI-H1373 [26]): 49%
Activity (NCI-H1373 [27]): 73%
IC50 (NCI-H1373 [28]; Homo sapiens, NCI-H1373, 144 h): 8 nM
IC50 (NCI-H1373 [28]; nci-h1373): 6 nM
inhibition in vivo at 40 mg/kg (NCI-H1373 [29]): > 100%
inhibition in vivo at 3 mg/kg (NCI-H1373 [30]): 82%
